Read-outs that look alike come from different tables or passages of the source.
What was measured:
[1] = system: 4T1 R8 cells; assay: Cell viability assay, 4T1 R8 cells; assay type: cell-based, mouse; conditions: for Fold change in chemosensitivity (IC50 single / 7S9 combination): 2 μM 7S9; for CI (combination index), MTA with 7S9: 2 μM 7S9, Chou and Talalay method; for IC50: 72 hr
Description: (§1) MCF-7, MDA-MB-231, MDA-MB-468, Hs578T, 4T1, and HeLa cell lines stably expressing H2B-mCherry and eGFP-tubulin (kindly provided by Dr. Anthony A. Hyman, Max-Planck-Institute for Molecular Cell Biology and Genetics, Dresden, Germany) were cultured in high-glucose Dulbecco's Modified Eagle Medium (DMEM). SK-BR-3 cells were cultured in McCoy's Modified 5a Medium. Hs578T cells were cultured in high-glucose DMEM supplemented with an additional 0.01 mg/mL bovine insulin. […] All mentioned media were supplemented with 10% fetal bovine serum (Gibco) and 1% Penicillin/Streptomycin (Corning), and cells were incubated at 37° C. in a humidified atmosphere containing 5% CO2. HEK293 cells were cultured in HE300 medium (GMEP incorporated, Japan) and maintained in suspension culture with 125 rpm and 8% CO2.
(§2) The cancer cells were cultured in a 96-well plate at a confluence of 1000-2000 cells/well with indicated drugs for specific days. When the time was up, the culture medium in the plate was aspirated and replaced with a prepared CellTiter-Glo reagent/DMEM mixture (1:1 mix of CellTiter-Glo reagent and serum-supplemented DMEM). After incubation for 10 min, the luminescence (proportional to the number of living cells) was measured with an ELISA plate reader to determine the cell viability.

[2] = system: 4T1 R4 cells; assay: Cell viability assay, 4T1 R4 cells; assay type: cell-based, mouse; conditions: for Fold change in chemosensitivity (IC50 single / 7S9 combination): 2 μM 7S9; for CI (combination index), MTA with 7S9: 2 μM 7S9, Chou and Talalay method; for IC50: 72 hr
Description: as §1, §2

[3] = biological target: T1, KIF2B (Homo sapiens, UniProt Q8N4N8); assay: In vitro kinesin assay, KIF2B; assay type: biochemical; conditions: 50 μM (FIG. 4I)
T1 construct: KIF2B (171-553 a.a.); 6xHis (C); made in house; host or cells: E. coli BL21 (DE3), pET-28a
T1 sequence (Q8N4N8 171-553): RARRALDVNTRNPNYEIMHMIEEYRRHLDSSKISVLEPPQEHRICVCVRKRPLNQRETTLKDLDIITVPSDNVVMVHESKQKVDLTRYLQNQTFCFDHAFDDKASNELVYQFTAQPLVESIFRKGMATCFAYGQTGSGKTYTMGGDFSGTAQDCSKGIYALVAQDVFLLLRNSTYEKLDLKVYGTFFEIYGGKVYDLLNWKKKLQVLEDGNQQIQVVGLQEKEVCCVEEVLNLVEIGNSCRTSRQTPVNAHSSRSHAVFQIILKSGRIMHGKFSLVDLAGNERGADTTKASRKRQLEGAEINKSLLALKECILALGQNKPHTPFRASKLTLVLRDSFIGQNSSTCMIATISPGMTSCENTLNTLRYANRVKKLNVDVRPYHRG
Description: (§3) In vitro kinesin activity was measured using malachite green-based phosphate colorimetric assay (BioVision). […] The microtubules from porcine brain tubulin (Cytoskeleton) or purified from HEK293 cells in Free-style medium (293Fs) were dissolved in the BRB80 buffer (80 mM PIPES pH 6.8, 1 mM EGTA, 1 mM MgCl2, 1 mM GTP, 1 mM DTT, and 10% DMSO) at 37° C. for 2 hr. Phosphates released from kinesin-mediated ATP hydrolysis was measured by adding 30 μL of the phosphate colorimetric reagent (BioVision), incubated for 10 min, and then measured with absorbance at 650 nm.
(§4) Constructs of sN+M regions of KIF2C (216-598 a.a.), KIF2A (181-562 a.a.) and KIF2B (171-553 a.a.) with C-terminal 6×His tag were subcloned into pET-28a vector and expressed in BL21 (DE3) E. coli cells (Novartis) cultured in Luria-Bertani medium supplemented with 50 ug/mL kanamycin at 37° C. After induction with 0.8 mM IPTG for 18 hr at 20° C., the cells were pelleted by centrifugation at 6000 rpm for 30 min at 10° C. The collected pellets were resuspended in 30 mL of buffer A (20 mM Tris-HCl pH 7.5, 500 mM NaCl, 10 mM imidazole, 1% CHAPS, and 1 mM PMSF) and next subjected to a high-pressure homogenizer (EmulsiFlex-C3) for cell lysis. After removing the cell debris by centrifugation at 13000 rpm for 30 min at 10° C., the recombinant Kinesin-13 in the supernatant was purified using nickel affinity chromatography. […]

[4] = biological target: T2, KIF2C (Homo sapiens, UniProt Q99661); assay: In vitro validation: KIF2C kinesin activity, malachite green-based phosphate colorimetric assay; assay type: biochemical; conditions: for EC50: concentration that inhibits 50% of KIF2C activity
T2 construct: KIF2C (216-598 a.a.); 6xHis (C); made in house; host or cells: E. coli BL21 (DE3), pET-28a
T2 sequence (Q99661 216-598): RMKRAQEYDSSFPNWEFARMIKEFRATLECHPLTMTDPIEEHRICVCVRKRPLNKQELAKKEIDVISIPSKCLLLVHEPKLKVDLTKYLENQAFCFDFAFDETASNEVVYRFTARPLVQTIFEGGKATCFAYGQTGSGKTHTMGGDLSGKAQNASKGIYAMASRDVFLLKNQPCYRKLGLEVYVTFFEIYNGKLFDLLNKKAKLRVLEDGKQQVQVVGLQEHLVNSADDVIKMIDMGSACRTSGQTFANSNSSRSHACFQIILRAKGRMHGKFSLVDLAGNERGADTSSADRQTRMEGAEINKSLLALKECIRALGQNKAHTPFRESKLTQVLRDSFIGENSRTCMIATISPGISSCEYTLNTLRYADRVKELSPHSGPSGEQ
Method in brief: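 KIF2C sN+M construct (aa 216-598, C-terminal 6×His, E. coli-expressed) ATPase activity with microtubules from porcine brain tubulin or HEK293 (293Fs) cells in BRB80 (80 mM PIPES pH 6.8, 1 mM GTP, 10% DMSO), 37° C for 2 hr. Released phosphate detected by malachite green reagent, 10 min, A650.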

[5] = system: MDA-MB-231 cells; assay: Cell validation: cytotoxicity in MDA-MB-231 cells (CellTiter-Glo); assay type: cell-based; conditions: for IC50: Homo sapiens, cytotoxicity in MDA-MB-231 cells
Method in brief: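 MDA-MB-231 cells were seeded at 2000 cells/well and exposed to compounds for the specified number of days. Medium was then replaced with a 1:1 CellTiter-Glo reagent/serum-supplemented DMEM mix for 10 min, and viability was read as luminescence, proportional to living cell number.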

[6] = biological target: T3, KIF2A (Homo sapiens, UniProt O00139); assay: In vitro kinesin assay, KIF2A; assay type: biochemical; conditions: 50 μM (FIG. 4I)
T3 construct: KIF2A (181-562 a.a.); 6xHis (C); made in house; host or cells: E. coli BL21 (DE3), pET-28a
T3 sequence (O00139 181-562): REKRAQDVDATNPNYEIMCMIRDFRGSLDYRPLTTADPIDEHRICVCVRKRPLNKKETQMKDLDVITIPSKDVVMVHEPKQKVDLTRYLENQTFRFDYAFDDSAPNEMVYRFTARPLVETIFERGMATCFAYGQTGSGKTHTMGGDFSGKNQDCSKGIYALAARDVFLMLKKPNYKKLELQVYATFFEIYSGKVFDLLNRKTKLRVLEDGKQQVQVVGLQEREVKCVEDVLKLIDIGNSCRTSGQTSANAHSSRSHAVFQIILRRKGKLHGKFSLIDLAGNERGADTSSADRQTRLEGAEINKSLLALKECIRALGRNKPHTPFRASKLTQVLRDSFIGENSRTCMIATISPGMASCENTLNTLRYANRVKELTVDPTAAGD
Description: as §3, §4

[7] = system: HeLa cells expressing H2B-mCherry and eGFP-tubulin; assay: Live-cell imaging of intracellular microtubule distribution; assay type: cell-based
Description: For the microtubule distribution analysis, HeLa cell line stably expressing H2B-mCherry and eGFP-tubulin (a kind gift from Anthony A. Hyman, Max-Planck-Institute for Molecular Cell Biology and Genetics, Dresden, Germany) were treated with KIF2C inhibitors (10 μM DHTP or 10 μM 7S9) during imaging. Live-cell imaging was conducted on a Nikon T1 inverted fluorescence microscope (Nikon) with a 60× oil objective (Nikon), a Prime camera (Photometrics), and 37° C., 5% CO2 heat stage (Live Cell Instrument). Microtubule morphological changes were imaged at 3-min intervals. Images were obtained using ImageJ software processed with Gaussian Blur to remove the noise.

[8] = system: MDA-MB-231 R, MDA-MB-231 S, 4T1 S1, R4, and R8 cells; assay: Cell viability of indicated cell lines, DHTP or 7S9 for 72 hr; assay type: cell-based; conditions: MDA-MB-231 R
Description: as §2

[9] = system: 4T1 cells; assay: Flow cytometry analysis of cell membrane penetration ability; assay type: cell-based, mouse; conditions: 2 hr of drug treatment
Description: To quantify the cell membrane penetration ability of different DHTP analogs, 4T1 cells were collected by trypsin after 2 hr of drug treatment and then transferred into microcentrifuge tubes. 4T1 cells were then resuspended into the FACS buffer (1% FBS, 2 mM EDTA, and 0.05% NaN3 in PBS). After two times of FACS buffer rinsing, these samples were detected by flow cytometry (Cyto FLEX™ FLOW Cytometer). The KO525 (405 nm laser; 525 nm filter) channel was used to detect DHTP and 7S9.

[10] = MTA with 2 μM 7S9, read-out: IC50 (nM), Combination
[11] = Mus musculus, drug alone, read-out: IC50 (nM), Single

C=C1C[C@@H]2CC[C@@]34C[C@H]5O[C@H]6[C@@H](O3)[C@H]3O[C@H](CC[C@@H]3O[C@H]6[C@H]5O4)CC(=O)C[C@@H]3[C@@H](OC)[C@@H](C[C@H](O)CN)O[C@H]3C[C@H]3O[C@@H](CC[C@@H]1O2)C[C@@H](C)C3=C [Eribulin, eribulin]
Fold change in chemosensitivity (IC50 single / 7S9 combination) [1]: 21 | CI (combination index), MTA with 7S9 [1]: 0.54 | IC50 [1, 10]: 13.6 nM | IC50 [1, 11]: 284 nM | Fold change in chemosensitivity (IC50 single / 7S9 combination) [2]: 30 | CI (combination index), MTA with 7S9 [2]: 0.48 | IC50 [2, 10]: 14.5 nM | IC50 [2, 11]: 442 nM

CC1=C(C(=O)OC(C)C)C(c2ccc(Cl)cc2)n2c(s/c(=C\c3ccc(OCC(=O)O)cc3)c2=O)=N1 (stereo not drawn) [1S0 (1), reference compound]
inhibitory effect against KIF2B (in words) [3]: inhibited all three members of the kinesin-13 family | inhibitory effect against KIF2C (in words) ([4]; 50 μM (FIG. 4I)): inhibited all three members of the kinesin-13 family | inhibition of KIF2C kinesin activity (in words) ([4]; 100 μM (FIG. 4B)): could inhibit KIF2C kinesin activity | EC50 [4]: < 10 µM | cytotoxicity on MDA-MB-231 cells (in words) ([5]; 72 hr): not cytotoxic | IC50 [5]: > 50 µM | inhibitory effect against KIF2A (in words) [6]: inhibited all three members of the kinesin-13 family | intracellular microtubule distribution phenotype (in words) [7]: tubulin aggregation phenotype was not detected | cytotoxicity (in words) [8]: not cytotoxic | cell penetration, fluorescence signal at 510 nm emission (in words) [9]: no fluorescence signals

CCC1=C[C@@H]2CN(C1)Cc1c([nH]c3ccccc13)[C@@](C(=O)OC)(c1cc3c(cc1OC)N(C)[C@H]1[C@@](O)(C(=O)OC)[C@H](OC(C)=O)[C@]4(CC)C=CCN5CC[C@]31[C@@H]54)C2 [Vinorelbine, vinorelbine]
Fold change in chemosensitivity (IC50 single / 7S9 combination) [1]: 43 | CI (combination index), MTA with 7S9 [1]: 0.51 | IC50 [1, 11]: 104 nM | Fold change in chemosensitivity (IC50 single / 7S9 combination) [2]: 69 | CI (combination index), MTA with 7S9 [2]: 0.46 | IC50 [2, 11]: 159 nM

C/C(=C\c1csc(C)n1)[C@@H]1C[C@@H]2O[C@]2(C)CCC[C@H](C)[C@H](O)[C@@H](C)C(=O)C(C)(C)[C@@H](O)CC(=O)N1 [Ixabepilone, ixabepilone]
IC50 [1, 11]: 234 nM | IC50 [2, 11]: 358 nM

CC(=O)O[C@@]12CO[C@@H]1C[C@H](O)[C@@]1(C)C(=O)[C@H](O)C3=C(C)[C@@H](OC(=O)[C@H](O)[C@@H](NC(=O)OC(C)(C)C)c4ccccc4)C[C@@](O)([C@@H](OC(=O)c4ccccc4)[C@H]21)C3(C)C [Docetaxel, docetaxel]
CI (combination index), MTA with 7S9 [1]: 0.50 | IC50 [1, 11]: 208 nM | CI (combination index), MTA with 7S9 [2]: 0.45 | IC50 [2, 11]: 358 nM

CC1=C(C(=O)OC(C)C)C(c2ccc(Cl)cc2)n2c(s/c(=C\c3ccc(OCC(=O)NC4CCN(C)CC4)cc3)c2=O)=N1 (stereo not drawn) [Compound 136]
EC50 [4]: > 100 µM | IC50 [5]: > 50 µM

CC1=C(C(=O)O)C(c2ccc(Cl)cc2)n2c(s/c(=C\c3ccc(OCC(=O)N4CCN(C)CC4)cc3)c2=O)=N1 (stereo not drawn) [Compound 137]
EC50 [4]: < 50 µM | IC50 [5]: > 50 µM

CC1=C(C(=O)OC(C)C)C(c2ccc(Cl)cc2)n2c(s/c(=C\c3ccc(OCC(N)=O)cc3)c2=O)=N1 (stereo not drawn) [8S0 (15), isopropyl (Z)-2-(4-(2-amino-2-oxoethoxy)benzylidene)-5-(4-chlorophenyl)-7-methyl-3-oxo-2,3-dihydro-5H-thiazolo[3,2-a]pyrimidine-6-carboxylate]
EC50 [4]: > 100 µM | IC50 [5]: > 50 µM

CC1=C(C(=O)OC(C)C)C(c2ccc(Cl)cc2)n2c(s/c(=C\c3ccc(OCC(=O)NCC4CCN(C)CC4)cc3)c2=O)=N1 (stereo not drawn) [Compound 138]
EC50 [4]: 50 to 100 µM | IC50 [5]: 20 to 50 µM

CC1=C(C(=O)OC(C)C)C(c2ccc(Cl)cc2)n2c(s/c(=C\c3ccc(OCC(=O)N4CCC(O)CC4)cc3)c2=O)=N1 (stereo not drawn) [31S0 (20), isopropyl (Z)-5-(4-chlorophenyl)-2-(4-(2-(4-hydroxypiperidin-1-yl)-2-oxoethoxy)benzylidene)-7-methyl-3-oxo-2,3-dihydro-5H-thiazolo[3,2-a]pyrimidine-6-carboxylate]
EC50 [4]: > 100 µM | IC50 [5]: > 50 µM

CCOC(=O)C1=C(C)N=c2s/c(=C\c3ccc(OCC(=O)N4CCC(N5CCN(C)CC5)CC4)cc3)c(=O)n2C1c1ccc(N(C)C)cc1 (stereo not drawn) [Compound 150]
EC50 [4]: 50 to 100 µM | IC50 [5]: 20 to 50 µM

CC1=C(C(=O)OC(C)(C)C)C(c2ccc(Cl)cc2)n2c(s/c(=C\c3ccc(OCC(=O)O)cc3)c2=O)=N1 (stereo not drawn) [53S0 (80), (Z)-2-(4-((6-(tert-butoxycarbonyl)-5-(4-chlorophenyl)-7-methyl-3-oxo-5H-thiazolo[3,2-a]pyrimidin-2(3H)-ylidene)methyl)phenoxy)acetic acid]
EC50 [4]: 50 to 100 µM | IC50 [5]: > 50 µM

CC1=C(C(=O)OC(C)C)C(c2ccc(C(F)(F)F)cc2)n2c(s/c(=C\c3ccc(OCC(=O)N4CCN(C)CC4)cc3)c2=O)=N1 (stereo not drawn) [Compound 141]
EC50 [4]: < 50 µM | IC50 [5]: 20 to 50 µM

CNC(=O)COc1ccc(/C=c2\sc3n(c2=O)C(c2ccc(F)cc2)C(C(=O)OC(C)C)=C(C)N=3)cc1 (stereo not drawn) [10S0 (35), isopropyl (Z)-5-(4-fluorophenyl)-7-methyl-2-(4-(2-(methylamino)-2-oxoethoxy)benzylidene)-3-oxo-2,3-dihydro-5H-thiazolo[3,2-a]pyrimidine-6-carboxylate]
EC50 [4]: > 100 µM | IC50 [5]: > 50 µM
